These results are taken from patent publication US8486961B2, “Pyrrolo[4,3,2-de]quinolin-8-amine compounds and methods of their preparation and use” (Wyeth LLC, priority 2008, dated 2013).

Where two headings read alike, the source gives them in different places.

One test has as its target T1, mTOR (Homo sapiens, UniProt P42345).
T1 construct: FLAG
The experiment in a line: mTOR kinase assay (DELFIA, purified enzyme). As to conditions: purified FLAG-TOR, 100 μM ATP, His6-S6K substrate; * = compounds 4 and 5 screened as a mixture. It counts as biochemical. Here is the method: The routine human TOR assays with purified enzyme were performed in 96-well plates by DELFIA format as follows. Enzymes were first diluted in kinase assay buffer (10 mM Hepes (pH 7.4), 50 mM NaCl, 50 mM β-glycerophosphate, 10 mM MnCl2, 0.5 mM DTT, 0.25 μM microcystin LR, and 100 μg/mL BSA). To each well, 12 μL of the diluted enzyme were mixed briefly with 0.5 μL test inhibitor or control vehicle dimethylsulfoxide (DMSO). The kinase reaction was initiated by adding 12.5 μL kinase assay buffer containing ATP and His6-S6K to give a final reaction volume of 25 μL containing 800 ng/mL FLAG-TOR, 100 μM ATP and 1.25 μM His6-S6K. The reaction plate was incubated for 2 hours (linear at 1-6 hours) at room temperature with gentle shaking and then terminated by adding 25 μL Stop buffer (20 mM Hepes (pH 7.4), 20 mM EDTA, 20 mM EGTA). The DELFIA detection of the phosphorylated (Thr-389) His6-S6K was performed at room temperature using a monoclonal anti-P(T389)-p70S6K antibody (1A5, Cell Signaling) labeled with Europium-N1-ITC (Eu) (10.4 Eu per antibody, PerkinElmer). The DELFIA Assay buffer and Enhancement solution were purchased from PerkinElmer. 45 μL of the terminated kinase reaction mixture was transferred to a MaxiSorp plate (Nunc) containing 55 μL PBS. The His6-S6K was allowed to attach for 2 hours after which the wells were aspirated and washed once with PBS. 100 μL of DELFIA Assay buffer with 40 ng/mL Eu-P(T389)—S6K antibody was added. The antibody binding was continued for 1 hour with gentle agitation. The wells were then aspirated and washed 4 times with PBS containing 0.05% Tween-20 (PBST). 100 μL of DELFIA Enhancement solution was added to each well and the plates were read in a PerkinElmer Victor model plate reader. Data obtained were used to calculate enzymatic activity and enzyme inhibition by potential inhibitors. mTOR IC50 data (reported in μM) is provided in Table 1.

The next test has as its system LNCap cells. The experiment in a line: In vitro cell growth assay (MTS), LNCap. It counts as cell-based, human. Here is the method: (§1) Cells of human tumor lines LNCap and MDA468 were plated in 96-well culture plates at approximately 3000 cells per well. One day following plating, various doses of mTOR inhibitors were added to cells. Three days after drug treatment, viable cell densities were determined by metabolic conversion (by viable cells) of the dye MTS, a well-established cell proliferation assay. The assays were performed using an assay kit purchased from Promega Corp. (Madison, Wis.) following the protocol supplied with the kit. The MTS assay results were read in a 96-well plate reader by measuring absorbance at 490 nm. The effect of each treatment was calculated as percent of control growth relative to the vehicle-treated cells grown in the same culture plate. The drug concentration that conferred 50% inhibition of growth was determined as IC50 (μM).

Another test relates to MDA468 cells. Put plainly: In vitro cell growth assay (MTS), MDA468. The format is cell-based, human. Here is the method:
as §1

[1] abbreviates: 72 h, LNCap human tumor line, 3 days treatment, MTS, * = compounds 4 and 5 screened as a mixture.
Setting [2] is: Homo sapiens, LNCap cell growth.
Setting [3] is: 72 h, MDA468 human tumor line, 3 days treatment, MTS, * = compounds 4 and 5 screened as a mixture, read-out: MDA 468 IC50.

A word on the IC50: it is the midpoint of a concentration-inhibition curve.

As to `CCC(=O)Nc1cc(N)c2c3c(cc(C(=O)/C=C/OC)nc13)C=N2` [Compound 1, (E)-N-(8-amino-4-(3-methoxyacryloyl)pyrrolo[4,3,2-de]quinolin-6-yl)-propionamide], the IC50 on mTOR is 1.5 nM; in the test on LNCap cells (setting [1]), 48 nM; in the test with LNCap cells (setting [2]), 20 to 300 nM; in the test on MDA468 cells (setting [3]) it was 85 nM; with MDA468 cells (Homo sapiens, Example 8) it was 50 to 800 nM.

As for `CO/C=C/C(=O)c1cc2c3c(c(N)cc(NC(=O)C(C)C)c3n1)N=C2` [Compound 2, (E)-N-(8-amino-4-(3-methoxyacryloyl)pyrrolo[4,3,2-de]quinolin-6-yl)isobutyramide], the IC50 at mTOR was 0.8 nM; in the test on LNCap cells (setting [1]), 22 nM; in the test on LNCap cells (setting [2]), 20 to 300 nM; in the test on MDA468 cells (setting [3]) it was 58 nM; in the test with MDA468 cells (Homo sapiens, Example 8) it was 50 to 800 nM.

As for `CCCC(=O)Nc1cc(N)c2c3c(cc(C(=O)CCO)nc13)C=N2` [Compound 3, N-(8-amino-4-(3-hydroxypropanoyl)pyrrolo[4,3,2-de]quinolin-6-yl)butyramide], the IC50 on mTOR is more than 4000 nM; with LNCap cells (setting [1]) it was more than 12000 nM; in the test on MDA468 cells (setting [3]) it was more than 12000 nM.

As to `CO/C=C/C(=O)c1cc2c3c(c(N)cc(NC(=O)CC(C)C)c3n1)N=C2` [Compound 4, (E)-N-(8-amino-4-(3-methoxyacryloyl)pyrrolo[4,3,2-de]quinolin-6-yl)-3-methylbutanamide], the IC50 is 1.8 nM at mTOR; 230 nM with LNCap cells (setting [1]); 20 to 300 nM with LNCap cells (setting [2]); 700 nM in the test with MDA468 cells (setting [3]); 50 to 800 nM in the test with MDA468 cells (Homo sapiens, Example 8).

For the compound `CCC(C)C(=O)Nc1cc(N)c2c3c(cc(C(=O)/C=C/OC)nc13)C=N2` (stereo not drawn) [Compound 5, (E)-N-(8-amino-4-(3-methoxyacryloyl)pyrrolo[4,3,2-de]quinolin-6-yl)-2-methylbutanamide], the IC50 turned out to be 1.8 nM on mTOR, 230 nM in the test on LNCap cells (setting [1]) and 700 nM in the test on MDA468 cells (setting [3]).

In the case of `CC(C)C(=O)Nc1cc(N)c2c3c(cc(C(=O)CCO)nc13)C=N2` [Compound 6, N-(8-amino-4-(3-hydroxypropanoyl)pyrrolo[4,3,2-de]quinolin-6-yl)isobutyramide], the figures for the IC50 at mTOR, with LNCap cells (setting [1]) and in the test on MDA468 cells (setting [3]) were more than 4000 nM, 6500 nM and 1200 nM, respectively.

In the case of `CCC(=O)Nc1cc(N)c2c3c(cc(C(=O)CCO)nc13)C=N2` [Compound 7, N-(8-amino-4-(3-hydroxypropanoyl)pyrrolo[4,3,2-de]quinolin-6-yl)propionamide], the IC50 was more than 4000 nM at mTOR, 5000 nM in the test with LNCap cells (setting [1]) and 400 nM with MDA468 cells (setting [3]).

Regarding `CC(C)CC(=O)Nc1cc(N)c2c3c(cc(C(=O)CCO)nc13)C=N2` [Compound 8, N-(8-amino-4-(3-hydroxypropanoyl)pyrrolo[4,3,2-de]quinolin-6-yl)-3-methylbutanamide], the IC50 at mTOR was determined as 1500 nM; in the test on LNCap cells (setting [1]), 2900 nM; in the test on MDA468 cells (setting [3]), 3500 nM.

As to `CCC(C)C(=O)Nc1cc(N)c2c3c(cc(C(=O)CCO)nc13)C=N2` (stereo not drawn) [Compound 9, N-(8-amino-4-(3-hydroxypropanoyl)pyrrolo[4,3,2-de]quinolin-6-yl)-2-methylbutanamide], the IC50 on mTOR was found to be 3200 nM; in the test with LNCap cells (setting [1]), 10000 nM; with MDA468 cells (setting [3]) it was 7600 nM.
